Reference: EP0089939A1, “Compositions for therapeutic or diagnostic use containing oligosaccharides” (BioCarp AB, priority 1982, dated 1983)

Key:
N.gonorrhoeae [1] = assay: Inhibition of haemagglutination of human erythrocytes by N. gonorrhoeae; assay type: cell-based; details: Neisseria gonorrhoeae, Erythrocyte; human erythrocytes (O1Rh+); fimbriated N.gonorrhoeae; read after 2-4 hours at room temperature; read-out: Minimum concentration of inhibitor resulting in complete inhibition
Method: (§1) In the test there is used a strain of N. gonorrhoeae (international reference strain 3 from Neisseriaavd. Statens seruminstitutt, Copenhagen, Denmark. and a fresh strain of the same species isolated at the Bacteriological Central Laboratory, Lunds Hospital, Lund, Sweden). The bacteria were cultivated on a special gonococc medium, see Mardh, P.A., Martensson, D, Soltesz, L.V. "An effective, simplified medium for the culture of N. gonorrhoeae". Sex.Trans.Dis. Vol. 5, pp. 10-13, 1978, at + 37°C for 18 hours. The bacterial culture was slurried in PBS, pH 7.2 to a density of 109 bacteria/ml.
(§2) Haemagglutination was performed using erythrocytes from sheep or man (O1Rh+) which were washed with PBS and suspended to a concentration of 1 % v/w in PBS, pH 7.2. The agglutination tests were-performed so that 25 µl of the bacterial suspension was titrated in PBS by using two-fold […] steps. Then 25 µl of the erythrocyte suspension which had been made 1 % were added. The haemagglutination titre (Hu) was determined after incubating the plates (microtitre plates, Limbo Sc. Comp. Inc.) for 2-4 hours in room temperature.
(§3) In the haemagglutination-inhibition tests there were used serial dilutions having the relevant inhibitor (50 µl/well) and […] bacterial suspension diluted to contain twice the lowest haemagglutination titre. The plates were incubated for 30 minutes at +37°C, 25 µl of erythrocyte suspension being then added to each well. The result was read after 2-4 hours incubation at room temperature.

N. gonorrhoeae = assay: Inhibition of haemagglutination of sheep erythrocytes by N. gonorrhoeae; assay type: cell-based; details: Neisseria gonorrhoeae, Erythrocyte, fimbriated N. gonorrhoeae, read after 2-4 hours at room temperature, read-out: Minimum concentration of inhibitor resulting in complete inhibition of haemagglutination
Method: as §1, §2, §3

N.gonorrhoeae [2] = assay: Inhibition of adherence of N. gonorrhoeae to vaginal cells; assay type: cell-based; details: human vaginal cells, 50 cells counted; for reduction of the number of adhering bacteria: 5 mg/ml oligosaccharide
Method: Cells: Vaginal cells from healthy women in fertile age not having used hormonal preparations and werein proliferation phase were tested. Cells were collected from rear vaginal fornix with a wooden spatula and suspended in RPMI 1640 in a concentration of 10^5 cells/ml.
Gonococci: International reference strain 3 from Neisseriaavd. Statens Seruminstitut, Copenhagen, Denmark, suspended in cell cultivation medaium RPMI 1640 (Flow Ltd.) in a concentration of 10^9 bacteria/ml.
Oligosaccharides: β-D-Galp-(1-3)- -D-GalNAc-(1-0)-Me (1) β-D-Galp-(1-3)- -D-GalNAc-(1-0)-Me (2)
(§4) Procedure: 1 ml of […] containing 0 of (1), 5 mg/ml of (1) and 0.5 mg/ml of (1) and 5 mg/ml of (2), respectively, were incubated with 0.5 ml bacterial suspension at 37°C for 30 minutes. Vaginal cells (1 ml) were incubated with the above preincubated bacterial suspensions at 37°C for 45 minutes. The incubated suspensions were filtered through a filter (pore size 12 µ) and washed 3 times with PBS. The filter was pressed against microscope slides for a few seconds, the microscope slides being then fixed in methanol for 10 minutes. The microscope slides were dried in air and coloured with acridine orange for 2 minutes. After washing and drying in air the slides were studied by means of fluorescence microscopy. The number of bacteria adhering per cell was counted. In each test 50 vaginal cells were counted.

N.meningitidis = assay: Inhibition of adherence of N. meningitidis to buccal mucosa cells; assay type: cell-based; details: human buccal mucosa cells, N.meningitidis strain 3K, 45 min
Method: as §4
The procedure of EXAMPLE 2 was repeated but in this case cells were collected from young healthy women by scraping the Buccal Mucosae with a wooden spatula. The bacterium used was N.meningitidis, international test strain 3K, Statens Seruminstitut, Copenhagen, Denmark.

N.gonorrhoeae [3] = assay: Disinfection: removal of bacteria from an infected surface; details: 0.1 percent by weight aqueous solution applied with a cotton pad
Method: By disinfection is here primarily intended removal of bacteria from a surface, for example a wound.
A 0.1 percent by weight aqueous solution of the compound β-D-Galp-(1-4)-D-GNAc is prepared and applied by means of a cotton pad onto a surface infected by N.gonorrhoeae.

Molecule OC[C@H]1O[C@@H](O[C@H]2[C@H](O)[C@@H](O)C(O)O[C@@H]2CO)[C@H](O)[C@@H](O)[C@H]1O (stereo partly drawn) [β-D-Galp-(1-4)-D-Glc] has a minimal effective concentration (N.gonorrhoeae [1]) of over 5000 µg/mL.

Molecule CC(=O)N[C@H]1C(O)O[C@H](CO)[C@H](O)[C@@H]1O[C@@H]1O[C@H](CO)[C@H](O)[C@H](O)[C@H]1O (stereo partly drawn) [β-D-Galp-(1-3)-D-GalNAc] has a minimal effective concentration (N. gonorrhoeae) of 900 µg/mL and a minimal effective concentration (N.gonorrhoeae [1]) of 800 µg/mL.

OC[C@H]1O[C@@H](OC[C@H]2OC(O)[C@H](O)[C@@H](O)[C@@H]2O)[C@H](O)[C@@H](O)[C@H]1O (stereo partly drawn) [β-D-Galp-(1-6)-D-Glc] showed a minimal effective concentration (N.gonorrhoeae [1]) of over 5000 µg/mL.

OC[C@H]1O[C@@H](O[C@H]2[C@@H](O)[C@@H](CO)OC(O)[C@@H]2O)[C@H](O)[C@@H](O)[C@H]1O (stereo partly drawn) [β-D-Galp-(1-3)-D-Gal] gave a minimal effective concentration (N.gonorrhoeae [1]) of over 5000 µg/mL.

In the case of COC1O[C@H](CO)[C@H](O)[C@H](O[C@@H]2O[C@H](CO)[C@H](O)[C@H](O)[C@H]2O)[C@H]1NC(C)=O (stereo partly drawn) [(1), β-D-Galp-(1-3)- -D-GalNAc-(1-0)-Me], the effect on adherence (N.gonorrhoeae [2]; 0.5 mg/ml oligosaccharide) is reported as “did not significantly effect adherence”, the “reduction of the number of adhering bacteria” value (“reduction” for short) (N.gonorrhoeae [2]; 45 min) is reported as 87 and the “reduction” value (N.meningitidis; 0.5 mg/ml oligosaccharide) is reported as “about 15%”. The “reduction” value (N.meningitidis; 5 mg/ml oligosaccharide) was 90%.

With CO[C@H]1O[C@H](CO)[C@H](O)[C@H](O[C@@H]2O[C@H](CO)[C@H](O)[C@H](O)[C@H]2O)[C@H]1NC(C)=O [β-D-Galp-(1-3)-α-D-GalNAcp-(1-O)Me, Methyl 2-acetamido-2-deoxy-3-0-(β-D-galactopyranosyl)-a--D-galactopyranoside] the minimal effective concentration (N.gonorrhoeae [1]) was 200 µg/mL.

CO[C@@H]1O[C@H](CO)[C@H](O)[C@H](O[C@@H]2O[C@H](CO)[C@H](O)[C@H](O)[C@H]2O)[C@H]1NC(C)=O [β-D-Galp-(1-3)-β-D-GalNAcp-(1-O)Me, Methyl 2-acetamido-2-deoxy-3-0-(B-D-galaetopyranosyl)--β-D-galactopyranoside] gave a minimal effective concentration (N.gonorrhoeae [1]) of over 2000 µg/mL.

COC1O[C@H](CO)[C@H](O)[C@H](O[C@@H]2O[C@H](CO)[C@H](O)[C@H](O)[C@H]2O)[C@H]1NC(C)=O (stereo partly drawn) [(2), β-D-Galp-(1-3)- -D-GalNAc-(1-0)-Me] was tested, and the “reduction” value (N.gonorrhoeae [2]) was “did not significantly effect adherence”.

With CC(=O)N[C@H]1[C@H](O[C@H]2[C@@H](O)[C@@H](CO)O[C@H](O[C@@H]3[C@H](O)[C@@H](O)[C@H](O[C@H]4[C@H](O)[C@@H](O)C(O)O[C@@H]4CO)O[C@@H]3CO)[C@@H]2O)O[C@H](CO)[C@H](O)[C@@H]1O (stereo partly drawn) [β-D-GalNAc-(1-3)-α-D-Galp-(1-4) -β-D-Galp-(1-4)-D-Glc] the minimal effective concentration (N.gonorrhoeae [1]) was over 5000 µg/mL.

Work on CO[C@H]1O[C@H](CO)[C@H](O)[C@H](O[C@@H]2O[C@H](CO)[C@H](O)[C@H](O)[C@H]2O)[C@H]1NC(C)=O [β-D-Galp-(1-3)-α-D-GalNAc-(1-O)Me] yielded a minimal effective concentration (N. gonorrhoeae) of 150 µg/mL.

In the case of CC(=O)N[C@H]1C(O)O[C@H](CO)[C@@H](O[C@@H]2O[C@H](CO)[C@H](O)[C@H](O)[C@H]2O)[C@@H]1O (stereo partly drawn) [β-D-Galp-(1-4)-D-GNAc], the “removal of the bacterium from the surface” value (N.gonorrhoeae [3]) is reported as “effective removal of the bacterium from the surface”.

In the case of CO[C@@H]1O[C@H](CO)[C@H](O)[C@H](O[C@@H]2O[C@H](CO)[C@H](O)[C@H](O)[C@H]2O)[C@H]1NC(C)=O [β-D-Galp-(1-3)-β-D-GalNAc-(1-O)Me], the minimal effective concentration (N. gonorrhoeae) is reported as over 2000 µg/mL.
